# Experimental data: patent US20150141248A1, “ANTIFUNGAL COMPOSITIONS” (DSM IP ASSETS B.V., priority 2011, published 2015)
# What was measured:
# Penicillium italicum = assay: Treatment of wounded mandarins inoculated with Penicillium italicum (mould growth); assay type: in vivo
# Protocol: Ten fresh, organic mandarins were used per treatment. The peel of each mandarin was wounded once using a cork borer according to the method described by de Lapeyre de Bellaire and Dubois (1987). Subsequently, each wound was inoculated with 10 μl of a Penicillium italicum suspension containing 1×10^4 of spores/ml. […] The pH of the composition was 4.0. […]
# Botrytis cinerea [1] = assay: In vitro antifungal activity, 96-well microtiter plates; assay type: cell-based; details: in vitro 25° C.
# Protocol: The following compositions were tested: […] Subsequently, 100 μl of a Botrytis cinerea suspension prepared in PCB medium was used to inoculated each well with 2.5×10^3 spores/ml. […] The expected antifungal activity (E in %) of the active ingredient combination was calculated according to the Colby equation (Colby, 1967): […] wherein X and Y are the observed antifungal activities (in %) of the individual active ingredients X and Y, respectively.
# Botrytis cinerea [2] = assay: Treatment of wounded strawberries inoculated with Botrytis cinerea (mould growth); assay type: in vivo; details: 250 ppm natamycin; for Number of moulded wounds/total number of 12 wounds (title: Number of moulded strawberries): strawberries 20° C.; for Observed antifungal activity O: strawberries
# Protocol: Twelve fresh, organic strawberries were used per treatment. Each strawberry was wounded with a 0.5 mm long cut and each wound was inoculated with 10 μl of a Botrytis cinerea suspension containing 1×10^5 of spores/ml. […] The antifungal compositions also comprised 1.00% (w/w) methylhydroxyethylcellulose (MHEC), 0.40% (w/w) xanthan gum, 0.20% (w/w) anti-foaming agent, 0.30% (w/w) citric acid, 0.39% (w/w) lactic acid and 0.11% (w/w) potassium sorbate. The pH of the composition was 4.0. A composition without natamycin or prothioconazole was used as control. The treated strawberries were incubated in a closed box in the dark at 20° C. for 3 days.
# After 2 and 3 days of incubation, the mould growth on the strawberries was assessed in a twofold manner: (i) the number of moulded strawberries per total of 12 strawberries was counted; and (ii) the antifungal activity (in %) of the individual and combined active ingredients was determined by calculating the reduction in mould growth observed on the strawberries treated with the antifungal composition in comparison to the mould growth on the strawberries treated with the control composition according to the Colby method described in Example 4 (Colby, 1967).
# Fusarium proliferatum [3] = assay: Treatment of wounded bananas inoculated with Fusarium proliferatum (mould growth); assay type: in vivo; details: for Number of moulded wounds/total number of 12 wounds: bananas 20° C.; for Observed antifungal activity O: bananas
# Protocol: Four organic, unripe (green) bananas were used per treatment. The peel of each banana was wounded thrice using a cork borer according to the method described by de Lapeyre de Bellaire and Dubois (1987). Subsequently, each wound was inoculated with 15 μl of a Fusarium proliferatum suspension containing 1×10^5 of spores/ml. […] In addition, the antifungal compositions comprised 1.00% (w/w) methylhydroxyethylcellulose (MHEC), 0.40% (w/w) xanthan gum, 0.20% (w/w) anti-foaming agent, 0.30% (w/w) citric acid, 0.39% (w/w) lactic acid and 0.11% (w/w) potassium sorbate. The pH of the composition was 4.0. […] The treated, unripe bananas were incubated in a closed box in the dark at 20° C. and a relative air humidity of 95%, which was obtained in the presence of a saturated Na2HPO4 aqueous solution. During the first 20 days of incubation, a ripe (yellow) banana was included in the closed box to elevate the ethylene gas level and thus induce ripening of the treated, unripe bananas. […]
# The expected antifungal activity (E in %) of the combined antifungal composition comprising both active ingredients was calculated according to the Colby equation (Colby, 1967): […]
# wherein X and Y are the observed antifungal activities (in %) of the individual active ingredients X and Y, respectively. If the observed antifungal activity (O in %) of the combination exceeds the expected antifungal activity (E in %) of the combination and the synergy factor O/E is thus >1.0, the combined application of the active ingredients leads to a synergistic antifungal effect.
# Fusarium proliferatum [4] = assay: In vitro antifungal activity, 96-well microtiter plates; assay type: cell-based; details: in vitro 25° C., natamycin 2.5 ppm
# Protocol: Subsequently, 100 μl of a Botrytis cinerea suspension prepared in PCB medium was used to inoculated each well with 2.5×10^3 spores/ml.
# , the in vitro antifungal activity (%) of the individual active ingredients was assessed by calculating the reduction in mould growth observed in the presence of the active ingredient in comparison to the mould growth observed in the absence of the active ingredient. The expected antifungal activity (E in %) of the active ingredient combination was calculated according to the Colby equation (Colby, 1967): […]
# The experiment was conducted as described in Example 13, except for the fact that the following compositions were tested:
# Furthermore, Fusarium proliferatum was used for inoculation. The antifungal activity (in %) of the individual and combined active ingredients was determined according to the method described in Example 13.
smiles,measurement,setting,value
"C[C@@H]1C/C=C/C=C/C=C/C=C/[C@H](O[C@@H]2O[C@H](C)[C@@H](O)[C@H](N)[C@@H]2O)C[C@@H]2O[C@](O)(C[C@@H](O)C[C@H]3O[C@@H]3/C=C/C(=O)O1)C[C@H](O)[C@H]2C(=O)O [Natamycin, natamycin]",Observed antifungal activity O,"Penicillium italicum; 250 ppm natamycin, 150 ppm prothioconazole or both, 13 days",27%
same,Observed antifungal activity O,"Penicillium italicum; 250 ppm natamycin, 150 ppm prothioconazole or both, 21 days",6%
same,Observed antifungal activity O,"Penicillium italicum; 250 ppm natamycin, 150 ppm prothioconazole or both, 26 days",5%
same,Observed antifungal activity O,"Penicillium italicum; 250 ppm natamycin, 150 ppm prothioconazole or both, 29 days",3%
same,Observed antifungal activity O,"Penicillium italicum; 250 ppm natamycin, 150 ppm prothioconazole or both, 34 days",0%
same,Observed antifungal activity O,"Penicillium italicum; 500 ppm natamycin, 600 ppm prothioconazole or both, 25 days",34%
same,Observed antifungal activity O,"Penicillium italicum; 500 ppm natamycin, 600 ppm prothioconazole or both, 28 days",27%
same,Observed antifungal activity O,"Penicillium italicum; 500 ppm natamycin, 600 ppm prothioconazole or both, 31 days",24%
same,Observed antifungal activity O,"Penicillium italicum; 500 ppm natamycin, 600 ppm prothioconazole or both, 34 days",24%
same,Observed antifungal activity O,"Botrytis cinerea [1]; 5 days, natamycin 0.63 ppm, propiconazole 1.00 ppm or both",0%
same,Observed antifungal activity O,"Botrytis cinerea [1]; 5 days, natamycin 1.25 ppm, propiconazole 0.50 ppm, prothioconazole 0.13 ppm, or natamycin 1.25 ppm with either",0%
same,Observed antifungal activity O,"Botrytis cinerea [1]; 10 days, natamycin 1.25 ppm, prothioconazole 0.13 ppm or both",0%
same,Number of moulded wounds/total number of 12 wounds (title: Number of moulded strawberries),"Botrytis cinerea [2]; 500 ppm prothioconazole or both, Day 2",10/12
same,Number of moulded wounds/total number of 12 wounds (title: Number of moulded strawberries),"Botrytis cinerea [2]; 500 ppm prothioconazole or both, Day 2, listed as natamycin",10
same,Number of moulded wounds/total number of 12 wounds (title: Number of moulded strawberries),"Botrytis cinerea [2]; 500 ppm prothioconazole or both, Day 3",12/12
same,Number of moulded wounds/total number of 12 wounds (title: Number of moulded strawberries),"Botrytis cinerea [2]; 500 ppm prothioconazole or both, Day 3, listed as natamycin",12
same,Observed antifungal activity O,"Botrytis cinerea [2]; 500 ppm prothioconazole (row prints 50 ppm) or both, 3 days",24%
same,Observed antifungal activity O,"Botrytis cinerea [2]; 500 ppm prothioconazole or both, 2 days",31%
same,Number of moulded wounds/total number of 12 wounds,"Fusarium proliferatum [3]; 50 ppm natamycin, 250 ppm propiconazole or both, Day 29",12/12
same,Number of moulded wounds/total number of 12 wounds,"Fusarium proliferatum [3]; 50 ppm natamycin, 250 ppm propiconazole or both, Day 32",12/12
same,Number of moulded wounds/total number of 12 wounds,"Fusarium proliferatum [3]; 50 ppm natamycin, 250 ppm propiconazole or both, Day 34",12/12
same,Number of moulded wounds/total number of 12 wounds,"Fusarium proliferatum [3]; 50 ppm natamycin, 250 ppm propiconazole or both, Day 36",12/12
same,Number of moulded wounds/total number of 12 wounds,"Fusarium proliferatum [3]; 50 ppm natamycin, 250 ppm propiconazole or both, Day 39",12/12
same,Number of moulded wounds/total number of 12 wounds,"Fusarium proliferatum [3]; 50 ppm natamycin, 250 ppm propiconazole or both, Day 42",12/12
same,Number of moulded wounds/total number of 12 wounds,"Fusarium proliferatum [3]; 250 ppm natamycin, 100 ppm prothioconazole or both, Day 27",12/12
same,Number of moulded wounds/total number of 12 wounds,"Fusarium proliferatum [3]; 250 ppm natamycin, 100 ppm prothioconazole or both, Day 28 and 29",12/12
same,Number of moulded wounds/total number of 12 wounds,"Fusarium proliferatum [3]; 250 ppm natamycin, 500 ppm propiconazole or both, Day 34",12/12
same,Number of moulded wounds/total number of 12 wounds,"Fusarium proliferatum [3]; 250 ppm natamycin, 500 ppm propiconazole or both, Day 36",12/12
same,Number of moulded wounds/total number of 12 wounds,"Fusarium proliferatum [3]; 500 ppm natamycin, 150 ppm propiconazole or both, Day 26",8/12
same,Number of moulded wounds/total number of 12 wounds,"Fusarium proliferatum [3]; 500 ppm natamycin, 150 ppm propiconazole or both, Day 26, listed as natamycin",8
same,Number of moulded wounds/total number of 12 wounds,"Fusarium proliferatum [3]; 500 ppm natamycin, 150 ppm propiconazole or both, Days 27-29",8/12
same,Number of moulded wounds/total number of 12 wounds,"Fusarium proliferatum [3]; 500 ppm natamycin, 150 ppm propiconazole or both, Days 27-29, listed as natamycin",8
same,Number of moulded wounds/total number of 12 wounds,"Fusarium proliferatum [3]; 500 ppm natamycin, 150 ppm propiconazole or both, Days 31-32",8/12
same,Number of moulded wounds/total number of 12 wounds,"Fusarium proliferatum [3]; 500 ppm natamycin, 150 ppm propiconazole or both, Days 31-32, listed as natamycin",8
same,Number of moulded wounds/total number of 12 wounds,"Fusarium proliferatum [3]; 500 ppm natamycin, 250 ppm prothioconazole or both, Day 27, 28 and 29",8/12
same,Number of moulded wounds/total number of 12 wounds,"Fusarium proliferatum [3]; 500 ppm natamycin, 250 ppm prothioconazole or both, Day 27, 28 and 29, listed as natamycin",8
same,Number of moulded wounds/total number of 12 wounds,"Fusarium proliferatum [3]; 500 ppm natamycin, 1000 ppm propiconazole or both, Day 39",12/12
same,Number of moulded wounds/total number of 12 wounds,"Fusarium proliferatum [3]; 500 ppm natamycin, 1000 ppm propiconazole or both, Day 42",12/12
same,Observed antifungal activity O,"Fusarium proliferatum [3]; 50 ppm natamycin, 250 ppm propiconazole or both, 29 days",4%
same,Observed antifungal activity O,"Fusarium proliferatum [3]; 50 ppm natamycin, 250 ppm propiconazole or both, 32 days",1%
same,Observed antifungal activity O,"Fusarium proliferatum [3]; 50 ppm natamycin, 250 ppm propiconazole or both, 34 days",1%
same,Observed antifungal activity O,"Fusarium proliferatum [3]; 50 ppm natamycin, 250 ppm propiconazole or both, 36 days",0%
same,Observed antifungal activity O,"Fusarium proliferatum [3]; 50 ppm natamycin, 250 ppm propiconazole or both, 39 days",0%
same,Observed antifungal activity O,"Fusarium proliferatum [3]; 50 ppm natamycin, 250 ppm propiconazole or both, 42 days",0%
same,Observed antifungal activity O,"Fusarium proliferatum [3]; 250 ppm natamycin, 50 ppm propiconazole or both, 23 days",23%
same,Observed antifungal activity O,"Fusarium proliferatum [3]; 250 ppm natamycin, 50 ppm propiconazole or both, 27 days",26%
same,Observed antifungal activity O,"Fusarium proliferatum [3]; 250 ppm natamycin, 50 ppm propiconazole or both, 29 days",29%
same,Observed antifungal activity O,"Fusarium proliferatum [3]; 250 ppm natamycin, 500 ppm propiconazole or both, 34 days",0%
same,Observed antifungal activity O,"Fusarium proliferatum [3]; 250 ppm natamycin, 500 ppm propiconazole or both, 36 days",0%
same,Observed antifungal activity O,"Fusarium proliferatum [3]; 250 ppm natamycin, 500 ppm propiconazole or both, 39 days",0%
same,Observed antifungal activity O,"Fusarium proliferatum [3]; 250 ppm natamycin, 500 ppm propiconazole or both, 42 days",0%
same,Observed antifungal activity O,"Fusarium proliferatum [3]; 500 ppm natamycin, 150 ppm propiconazole or both, 27 days",81%
same,Observed antifungal activity O,"Fusarium proliferatum [3]; 500 ppm natamycin, 150 ppm propiconazole or both, 28 days",81%
same,Observed antifungal activity O,"Fusarium proliferatum [3]; 500 ppm natamycin, 150 ppm propiconazole or both, 29 days",81%
same,Observed antifungal activity O,"Fusarium proliferatum [3]; 500 ppm natamycin, 150 ppm propiconazole or both, 31 days",74%
same,Observed antifungal activity O,"Fusarium proliferatum [3]; 500 ppm natamycin, 150 ppm propiconazole or both, 32 days",72%
same,Observed antifungal activity O,"Fusarium proliferatum [4]; 3 days, propiconazole 7.5 ppm or both",0%
same,Observed antifungal activity O,"Fusarium proliferatum [4]; 10 days, prothioconazole 0.5 ppm or both",0%
